According to patent US8334315B2, “Substituted aromatic carboxamide and urea derivatives as vanilloid receptor ligands” (Gruenenthal GmbH, priority 2009, dated 2012):

Columns and labels:
[1] = biological target: T1, hVR1 (Homo sapiens, UniProt Q8NER1); test: Functional test on human VR1, 45° C. stimulus; type: cell-based, human being; parameters: key to IC50 (human being), 45° C.: agonist / partial agonist / no effect: AG=agonist; pAG=partial agonist; NE=no effect
T1 construct: expressed in transfected cells; host or cells: CHO K1 cells (ECACC), stably transfected

[2] = biological target: T1, hVR1; test: Functional test on hVR1 after pH stimulus; type: cell-based, human being; parameters: key to IC50 (human being) hVR1, pH: agonist / partial agonist / no effect: AG=agonist; pAG=partial agonist; NE=no effect; conditions: for inhibition at 10 µM: read-out: IC50 (human being) hVR1, pH: inhibition (as a percentage)
[3] = biological target: T1, hVR1; test: Functional test on human VR1, NADA (N-arachidonoyl dopamine) stimulus; type: cell-based, human being; parameters: key to Ki (human being) NADA: agonist / partial agonist / no effect: AG=agonist; pAG=partial agonist; NE=no effect; conditions: for Ki: includes values given in brackets after pAG, read-out: Ki (human being) [nM] NADA
Source text: II. Functional Tests Carried Out on the Vanilloid Receptor (VR1)
The agonistic or antagonistic effect of the substances to be tested on the vanilloid receptor 1 (VR1) can also be determined using the following assay. In this assay, the influx of Ca^2+ through the channel is quantified with the aid of a Ca^2+-sensitive dye (type Fluo-4, Molecular Probes Europe BV, Leiden, the Netherlands) in a fluorescent imaging plate reader (FLIPR, Molecular Devices, Sunnyvale, USA).
Chinese hamster ovary cells (CHO K1 cells, European Collection of Cell Cultures (ECACC) United Kingdom) are stably transfected with the VR1 gene. For functional testing, these cells are plated out on poly-D-lysine-coated black 96-well plates having a clear base (BD Biosciences, Heidelberg, Germany) at a density of 25,000 cells/well. The cells are incubated overnight at 37° C. and 5% CO2 in a culture medium (Ham's F12 nutrient mixture, 10% by volume of FCS (foetal calf serum), 18 μg/ml of L-proline). The next day the cells are incubated with Fluo-4 (Fluo-4 2 μM, 0.01% by volume of Pluronic F127, Molecular Probes in HBSS (Hank's buffered saline solution), Gibco Invitrogen GmbH, Karlsruhe, Germany) for 30 minutes at 37° C. Subsequently, the plates are washed three times with HBSS buffer and after further incubation for 15 minutes at RT used for Ca^2+ measurement in a FLIPR assay. The Ca^2+-dependent fluorescence is measured before and after the addition of the substances to be tested (λex wavelength=488 nm, λem=540 nm). Quantification is carried out by measuring the highest fluorescence intensity (FC, fluorescence counts) over time.
The FLIPR protocol consists of 2 substance additions. First the compounds to be tested (10 μM) are pipetted onto the cells and the Ca^2+ influx is compared with the control (capsaicin 10 μM) (% activation based on the Ca^2+ signal after the addition of 10 μM of capsaicin). […]
Desensitising agonists and antagonists led to suppression of the Ca^2+ influx. The % inhibition is calculated compared to the maximum achievable inhibition with 10 μM of capsaicin.
Starting from the percentage displacement caused by different concentrations of the compounds to be tested of general formula I, IC50 inhibitory concentrations which cause a 50-per cent displacement of capsaicin were calculated. Ki values for the test substances were obtained by conversion by means of the Cheng-Prusoff equation (Cheng, Prusoff; Biochem. Pharmacol. 22, 3099-3108, 1973).
NADA=N-arachidonoyl dopamine

[4] = test system: NMRI mice; test: Neuropathic pain in mice, Bennett model (chronic constriction injury, cold allodynia) (CClm); type: in vivo
Protocol: VI. Neuropathic Pain in Mice
Efficacy in […] pain was tested using the Bennett model (chronic constriction injury; Bennett and Xie, 1988, Pain 33: 87-107).
Three loose ligatures are tied around the right ischiadic nerve of Ketavet/Rompun-anaesthetised NMRI mice weighing 16-18 g. The animals develop hypersensitivity of the innervated paw caused by the damaged nerve, which hypersensitivity is quantified, following a recovery phase of one week, over a period of approximately three weeks by means of a cold metal plate (temperature 4° C.) (cold allodynia). The animals are observed on this plate over a period of 2 min and the withdrawal reactions of the damaged paw are counted. Based on the pre-value prior to the application of the substance, the substance's effect over a certain period of time is determined at various points in time (for example 15, 30, 45, or 60 min following application) and the resultant area under the curve (AUC) and/or the inhibition of cold allodynia at the individual measuring points is/are expressed as a percentage effect relative to the vehicle control (AUC) or to the starting value (individual measuring points). The group size is n=10, the significance of an antiallodynic effect (*=p<0.05) is determined with the aid of an analysis of variance with repeated measures and Bonferroni post hoc analysis.
CClm=Bennet model in mice

T1 sequence (Q8NER1 whole entry): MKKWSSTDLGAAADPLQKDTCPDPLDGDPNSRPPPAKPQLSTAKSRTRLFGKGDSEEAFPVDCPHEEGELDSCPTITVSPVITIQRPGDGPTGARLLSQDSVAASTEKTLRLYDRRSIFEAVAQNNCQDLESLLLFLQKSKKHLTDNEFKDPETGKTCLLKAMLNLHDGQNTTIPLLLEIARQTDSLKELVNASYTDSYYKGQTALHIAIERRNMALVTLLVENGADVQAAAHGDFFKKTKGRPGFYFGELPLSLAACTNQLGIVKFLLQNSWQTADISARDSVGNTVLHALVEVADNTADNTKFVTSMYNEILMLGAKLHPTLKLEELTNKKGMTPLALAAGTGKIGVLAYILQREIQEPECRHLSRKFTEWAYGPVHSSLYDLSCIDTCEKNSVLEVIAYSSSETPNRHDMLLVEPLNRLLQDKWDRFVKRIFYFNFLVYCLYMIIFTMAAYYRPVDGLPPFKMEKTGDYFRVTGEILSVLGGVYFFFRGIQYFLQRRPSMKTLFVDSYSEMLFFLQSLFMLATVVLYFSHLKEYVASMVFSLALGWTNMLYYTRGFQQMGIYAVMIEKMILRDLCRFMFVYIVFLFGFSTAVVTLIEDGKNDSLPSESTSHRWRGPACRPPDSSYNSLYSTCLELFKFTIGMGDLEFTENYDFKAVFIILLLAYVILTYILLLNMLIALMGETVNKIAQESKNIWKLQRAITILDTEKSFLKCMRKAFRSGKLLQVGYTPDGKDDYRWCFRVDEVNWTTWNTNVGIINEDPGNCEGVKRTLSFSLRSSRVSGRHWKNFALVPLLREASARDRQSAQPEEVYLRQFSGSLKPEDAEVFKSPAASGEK

CC(C(=O)NCc1cc(C(C)(C)C)nn1-c1cccc(Cl)c1)c1ccc2c(c1)OCO2 (centres unmarked) [Example 11, 2-(benzo[d][1,3]dioxol-5-yl)-N-((3-tert-butyl-1-(3-chlorophenyl)-1H-pyrazol-5-yl)methyl)propanamide]
IC50 (human being), 45° C.: agonist / partial agonist / no effect [1]: pAG
inhibition at 10 µM [2]: 36%
Ki (human being) NADA: agonist / partial agonist / no effect [3]: pAG
CClm (Bennett model, percentage effect on cold allodynia) ([4]; 0.1 iv): CClm 77%

CC(C(=O)NCc1cc(C(C)(C)C)nn1-c1cccc(Cl)c1)c1ccc2c(c1)OCCO2 (centres unmarked) [Example 13, N-((3-tert-butyl-1-(3-chlorophenyl)-1H-pyrazol-5-yl)methyl)-2-(2,3-dihydrobenzo[b][1,4]dioxin-6-yl)propanamide]
IC50 (human being), 45° C.: agonist / partial agonist / no effect [1]: pAG
inhibition at 10 µM [2]: 49%
Ki (human being) NADA: agonist / partial agonist / no effect [3]: pAG
Ki [3]: 4.3 nM
CClm (Bennett model, percentage effect on cold allodynia) ([4]; 0.1 iv): CClm 85%

Cc1nc2ccc(C(C)C(=O)NCc3cc(C(F)(F)F)nn3-c3cccc(Cl)c3)cc2s1 (centres unmarked) [Example 45, N-((1-(3-chlorophenyl)-3-(trifluoromethyl)-1H-pyrazol-5-yl)methyl)-2-(2-methylbenzo[d]thiazol-6-yl)propanamide]
Ki (human being) NADA: agonist / partial agonist / no effect [3]: pAG
Ki [3]: 11.8 nM

CC(C(=O)NCc1cc(C(F)(F)F)nn1-c1cccc(Cl)c1)c1ccc2cc(O)ccc2c1 (centres unmarked) [Example 50, N-((1-(3-chlorophenyl)-3-(trifluoromethyl)-1H-pyrazol-5-yl)methyl)-2-(6-hydroxynaphthalen-2-yl)propanamide]
IC50 (human being), 45° C.: agonist / partial agonist / no effect [1]: pAG
IC50 (human being) hVR1, pH: agonist / partial agonist / no effect [2]: pAG
CClm (Bennett model, percentage effect on cold allodynia) ([4]; 0.1 iv): CClm 83%

CC(C(=O)NCc1cc(C(F)(F)F)nn1-c1cccc(Cl)c1)c1cccc2cnccc12 (centres unmarked) [Example 64, N-((1-(3-chlorophenyl)-3-(trifluoromethyl)-1H-pyrazol-5-yl)methyl)-2-(isoquinolin-5-yl)propanamide]
IC50 ([1]; read-out: IC50 (human being) [nM], 45° C.): 357 nM
Ki [3]: 0.02 nM
CClm (Bennett model, percentage effect on cold allodynia) ([4]; 1 iv): CClm 62%

CC(C)(C)c1cc(CNC(=O)Nc2ccc3c(c2)CCC3)n(-c2cccc(Cl)c2)n1 [Example 79, 1-((3-tert-butyl-1-(3-chlorophenyl)-1H-pyrazol-5-yl)methyl)-3-(2,3-dihydro-1H-inden-5-yl)urea]
inhibition at 10 µM [2]: 21%
Ki [3]: 12.6 nM
CClm (Bennett model, percentage effect on cold allodynia) ([4]; 1 po): CClm 70%
